The text below walks through data of ChEMBL document CHEMBL4251596, “Hetero-Diels-Alder reactions of novel 3-triazolyl-nitrosoalkenes as an approach to functionalized 1,2,3-triazoles with antibacterial profile” (Eur J Med Chem, 2018).

Values after ≈ are worked out from the molar mass of the structure shown. Active and inactive are the calls of the source. The calls are words filed in the database; no cut-off is given here.

The subject of one series is Klebsiella pneumoniae. Kind of series: Antibacterial activity against Klebsiella pneumoniae ATCC 4352 assessed as diameter of inhibition at 30 ug/disk after 24 hrs by disk diffusion assay (reference value: 0 mm). The note with it: ATCC 4352, 24 h, read-out: DIZ. It counts as functional. (In general: In agar diffusion tests the substance spreads into inoculated agar from a disc or well.)

In another series the test system is Serratia marcescens. Description: Antibacterial activity against Serratia marcescens ATCC 14756 assessed as diameter of inhibition at 30 ug/disk after 24 hrs by disk diffusion assay (reference value: 0 mm). Type of series: functional. The note with it: ATCC 14756, 24 h, read-out: DIZ.
Series [1] relates to Staphylococcus aureus. Kind of series: Antibacterial activity against methicillin-resistant Staphylococcus aureus BMB9393 assessed as diameter of inhibition at 30 ug/disk after 24 hrs by disk diffusion assay (reference value: 0 mm). Type of series: functional. The note with it: BMB9393, 24 h, read-out: DIZ.
The test system of series [2] is Staphylococcus epidermidis. Kind of series: Antibacterial activity against Staphylococcus epidermidis ATCC 12228 assessed as diameter of inhibition at 30 ug/disk after 24 hrs by disk diffusion assay (reference value: 0 mm). Type of series: functional. Conditions: ATCC 12228, 24 h, read-out: DIZ.
In the next series the test system is Pseudomonas aeruginosa. Description: Antibacterial activity against Pseudomonas aeruginosa ATCC 27853 assessed as diameter of inhibition at 30 ug/disk after 24 hrs by disk diffusion assay (reference value: 0 mm). It counts as functional. Conditions: ATCC 27853, 24 h, read-out: DIZ.
The test system of series [3] is Staphylococcus aureus. Description: Antibacterial activity against Staphylococcus aureus ATCC 25923 assessed as diameter of inhibition at 30 ug/disk after 24 hrs by disk diffusion assay (reference value: 0 mm). It counts as functional. Conditions: ATCC 25923, 24 h, read-out: DIZ.
In series [4] the test system is Staphylococcus simulans. Description: Antibacterial activity against Staphylococcus simulans ATCC 27851 assessed as diameter of inhibition at 30 ug/disk after 24 hrs by disk diffusion assay (reference value: 0 mm). Type of series: functional. Conditions: ATCC 27851, 24 h, read-out: DIZ.
A further series relates to Enterococcus faecalis. Kind of series: Antibacterial activity against Enterococcus faecalis ATCC 29212 assessed as diameter of inhibition at 30 ug/disk after 24 hrs by disk diffusion assay (reference value: 0 mm). The note with it: ATCC 29212, 24 h, read-out: DIZ. Type of series: functional.
Another series deals with Enterobacter cloacae. Kind of series: Antibacterial activity against Enterobacter cloacae ATCC 23355 assessed as diameter of inhibition at 30 ug/disk after 24 hrs by disk diffusion assay (reference value: 0 mm). Type of series: functional. Conditions: ATCC 23355, 24 h, read-out: DIZ.
For another series, the system named is Proteus mirabilis. Kind of series: Antibacterial activity against Proteus mirabilis ATCC 15290 assessed as diameter of inhibition at 30 ug/disk after 24 hrs by disk diffusion assay (reference value: 0 mm). Type of series: functional. Conditions: ATCC 15290, 24 h, read-out: DIZ.
A short description of series [5]: Selectivity index, ratio of MIC for antibacterial activity against methicillin-resistant Staphylococcus aureus BMB9393 to MIC for antibacterial activity against Staphylococcus simulans ATCC 27851. Type of series: functional.
Series [6] concerns Staphylococcus aureus. Description: Antibiofilm activity against methicillin-resistant Staphylococcus aureus BMB9393 at 1/2 and 1/4 MIC after 24 hrs by crystal violet based assay. It counts as functional.
Series [7] can be described thus: (§1) Hemolytic activity in human erythrocytes at 10 to 200 ug/ml after 3 hrs relative to control. Type of series: ADME, cell-based, Erythrocyte. Conditions: erythrocytes, read-out: Activity.
The test system of series [8] is Staphylococcus aureus. Kind of series: Antibacterial activity against Staphylococcus aureus ATCC 25923 after 24 hrs by microdilution assay. Type of series: functional. Conditions: ATCC 25923, 24 h.
The subject of series [9] is Staphylococcus aureus. Kind of series: Selectivity index, ratio of MIC for antibacterial activity against methicillin-resistant Staphylococcus aureus BMB9393 to MIC for antibacterial activity against Staphylococcus aureus ATCC 25923. Type of series: functional.
Series [10] relates to Staphylococcus simulans. Description: Antibacterial activity against Staphylococcus simulans ATCC 27851 after 24 hrs by microdilution assay. Type of series: functional. The note with it: ATCC 27851, 24 h. (In general: Broth dilution looks for growth in wells or tubes with falling amounts of substance.)
A short description of series [11]: Selectivity index, ratio of MIC for antibacterial activity against methicillin-resistant Staphylococcus aureus BMB9393 to MIC for antibacterial activity against Staphylococcus epidermidis ATCC 12228. It counts as functional.
Series [12] has as its system Staphylococcus aureus. Kind of series: Antibacterial activity against methicillin-resistant Staphylococcus aureus BMB9393 at 1/2 and 1/4 MIC after 24 hrs. It counts as functional, organism-based.
Series [13] relates to Staphylococcus aureus. Kind of series: Antibacterial activity against methicillin-resistant Staphylococcus aureus BMB9393 after 24 hrs by microdilution assay. Type of series: functional. The note with it: BMB9393, 24 h.
Series [14] relates to Staphylococcus epidermidis. Kind of series: Antibacterial activity against Staphylococcus epidermidis ATCC 12228 after 24 hrs by microdilution assay. Type of series: functional. Conditions: ATCC 12228, 24 h.
The test system of a further series is Erythrocyte. The series is described as §1. Type of series: ADME, cell-based. The note with it: erythrocyte, 3 h.

Turning to `O=[N+]([O-])c1ccc(-n2cc(/C(Cc3ccc[nH]3)=N/O)nn2)cc1`, the zone of inhibition at 30 µg/disc (with Klebsiella pneumoniae; in the series with Serratia marcescens; in the series with Staphylococcus aureus [1]; in series [2]; in the series on Pseudomonas aeruginosa; with Staphylococcus aureus [3]) was 0 mm each time. Moreover, the zone of inhibition at 30 µg/disc with Staphylococcus simulans [4], in the series with Enterococcus faecalis, in the series on Enterobacter cloacae and in the series with Proteus mirabilis was 0 mm throughout.

As to `CCC(CC)(c1ccc(C/C(=N\O)c2cn(-c3ccc(Cl)cc3)nn2)[nH]1)c1ccc(C/C(=N\O)c2cn(-c3ccc(Cl)cc3)nn2)[nH]1`, the zone of inhibition at 30 µg/disc (with Klebsiella pneumoniae; in the series on Serratia marcescens; in the series on Staphylococcus aureus [1]; in series [2]; in the series with Pseudomonas aeruginosa; in the series on Staphylococcus aureus [3]) was 0 mm each time. Besides, the zone of inhibition at 30 µg/disc in the series on Staphylococcus simulans [4], in the series on Enterococcus faecalis, in the series with Enterobacter cloacae and in the series on Proteus mirabilis was 0 mm throughout.

Turning to `O/N=C(\Cc1ccc[nH]1)c1cn(-c2ccccc2)nn1`, the zone of inhibition at 30 µg/disc (in the series on Klebsiella pneumoniae; in the series with Serratia marcescens; with Staphylococcus aureus [1]; in series [2]; with Pseudomonas aeruginosa; with Staphylococcus aureus [3]) was 0 mm in each case. Further, the zone of inhibition at 30 µg/disc in the series with Staphylococcus simulans [4], with Enterococcus faecalis, in the series on Enterobacter cloacae and in the series with Proteus mirabilis was 0 mm throughout.

As to `O/N=C(/CO/N=C(\Cc1c[nH]c2ccccc12)c1cn(-c2ccc(Cl)cc2)nn1)c1cn(-c2ccc(Cl)cc2)nn1`, the zone of inhibition at 30 µg/disc (in the series with Klebsiella pneumoniae; in the series with Serratia marcescens; with Staphylococcus aureus [1]; in [2]; in the series on Pseudomonas aeruginosa; with Staphylococcus aureus [3]) was 0 mm each time. The zone of inhibition at 30 µg/disc in the series on Staphylococcus simulans [4], with Enterococcus faecalis, in the series on Enterobacter cloacae and in the series on Proteus mirabilis was 0 mm throughout.

As to `COc1ccc(-n2cc(/C(Cc3ccc[nH]3)=N/O)nn2)cc1`, the zone of inhibition at 30 µg/disc (in the series with Klebsiella pneumoniae; in the series with Serratia marcescens; with Staphylococcus aureus [1]; in [2]; in the series with Pseudomonas aeruginosa; in the series with Staphylococcus aureus [3]) was 0 mm in each case. For the same compound, the zone of inhibition at 30 µg/disc in the series with Staphylococcus simulans [4], in the series with Enterococcus faecalis, in the series on Enterobacter cloacae and with Proteus mirabilis was 0 mm in each case.

In general, MIC refers to the lowest concentration that inhibits growth of the organism. A higher MIC goes with a need for much substance. Take `CCC(CC)(c1ccc[nH]1)c1ccc(C/C(=N\O)c2cn(-c3ccc(Cl)cc3)nn2)[nH]1`: the “Selectivity Index” value (in series [5]; in the series with Staphylococcus aureus [9]; in [11]) was 8 throughout. Moreover, the Activity with Staphylococcus aureus [6] is 73 - 76%. For the same compound, the hemolysis at 3 h in series [7] was below 10%. Also, the zone of inhibition at 30 µg/disc worked out at 0 mm in the series with Klebsiella pneumoniae; 0 mm with Serratia marcescens; 8 mm in the series with Staphylococcus aureus [1]; 12 mm in series [2]; 0 mm in the series on Pseudomonas aeruginosa; 11 mm in the series on Staphylococcus aureus [3]. Besides, the zone of inhibition at 30 µg/disc was found to be 10 mm with Staphylococcus simulans [4], 0 mm in the series with Enterococcus faecalis, 0 mm with Enterobacter cloacae and 0 mm with Proteus mirabilis. Besides, the MIC against Staphylococcus aureus [8] worked out at 32 µg/mL (≈ 73.2 µM); in the series on Staphylococcus simulans [10] it was 32 µg/mL (≈ 73.2 µM); in the series on Staphylococcus aureus [13], 256 µg/mL (≈ 586 µM); in [14] it was 32 µg/mL (≈ 73.2 µM). In the series on Staphylococcus aureus [12], the result was Active.

Take `O/N=C(\Cc1ccc[nH]1)c1cn(-c2ccc(Cl)cc2)nn1`: the zone of inhibition at 30 µg/disc (in the series on Klebsiella pneumoniae; in the series on Serratia marcescens; with Staphylococcus aureus [1]; in series [2]; in the series on Pseudomonas aeruginosa; in the series on Staphylococcus aureus [3]) was 0 mm throughout. The zone of inhibition at 30 µg/disc in the series on Staphylococcus simulans [4], in the series on Enterococcus faecalis, in the series on Enterobacter cloacae and in the series with Proteus mirabilis was 0 mm throughout.

For the compound `O=C(O)c1cn(C2CC2)c2cc(N3CCNCC3)c(F)cc2c1=O` [CIPROFLOXACIN], in the series on Erythrocyte, the Activity result is reported as “Non-Toxic”. The zone of inhibition at 30 µg/disc in the series on Klebsiella pneumoniae was determined as 28 mm; in the series with Serratia marcescens, 29 mm; in the series on Pseudomonas aeruginosa, 37 mm; in the series with Proteus mirabilis, 39 mm.

`CC1(C)S[C@@H]2[C@H](NC(=O)Cc3ccccc3)C(=O)N2[C@H]1C(=O)O` [PENICILLIN G]: the Activity result with Erythrocyte is “Non-Toxic”.

Regarding `CN[C@H](CC(C)C)C(=O)N[C@H]1C(=O)N[C@@H](CC(N)=O)C(=O)N[C@H]2C(=O)N[C@H]3C(=O)N[C@H](C(=O)N[C@H](C(=O)O)c4cc(O)cc(O)c4-c4cc3ccc4O)[C@H](O)c3ccc(c(Cl)c3)Oc3cc2cc(c3O[C@@H]2O[C@H](CO)[C@@H](O)[C@H](O)[C@H]2O[C@H]2C[C@](C)(N)[C@H](O)[C@H](C)O2)Oc2ccc(cc2Cl)[C@H]1O` [VANCOMYCIN], the outcome in the series on Staphylococcus aureus [6] was Active. For the same compound, the Activity entry in the series on Erythrocyte is given as “Non-Toxic”. The zone of inhibition at 30 µg/disc in the series on Staphylococcus aureus [1] was determined as 13 mm; in series [2], 17 mm; in the series on Staphylococcus aureus [3], 15 mm; in the series with Staphylococcus simulans [4] it was 20 mm; in the series with Enterococcus faecalis, 18 mm. Also, in the series with Staphylococcus simulans [10], the minimal inhibitory concentration (MIC) came to 1 µg/mL (≈ 0.69 µM).
